{"source": "paper PMC3914206", "type_in_all_cases": "binding", "settings_in_all_cases": "Compound Concentration 10 µM", "key": {"panel of 442 kinases [1]": {"molecular_target": "T1, panel of 442 kinases (Homo sapiens, UniProt P80192)", "T1 construct": "purchased KINOMEscan", "T1 sequence (P80192 whole entry)": "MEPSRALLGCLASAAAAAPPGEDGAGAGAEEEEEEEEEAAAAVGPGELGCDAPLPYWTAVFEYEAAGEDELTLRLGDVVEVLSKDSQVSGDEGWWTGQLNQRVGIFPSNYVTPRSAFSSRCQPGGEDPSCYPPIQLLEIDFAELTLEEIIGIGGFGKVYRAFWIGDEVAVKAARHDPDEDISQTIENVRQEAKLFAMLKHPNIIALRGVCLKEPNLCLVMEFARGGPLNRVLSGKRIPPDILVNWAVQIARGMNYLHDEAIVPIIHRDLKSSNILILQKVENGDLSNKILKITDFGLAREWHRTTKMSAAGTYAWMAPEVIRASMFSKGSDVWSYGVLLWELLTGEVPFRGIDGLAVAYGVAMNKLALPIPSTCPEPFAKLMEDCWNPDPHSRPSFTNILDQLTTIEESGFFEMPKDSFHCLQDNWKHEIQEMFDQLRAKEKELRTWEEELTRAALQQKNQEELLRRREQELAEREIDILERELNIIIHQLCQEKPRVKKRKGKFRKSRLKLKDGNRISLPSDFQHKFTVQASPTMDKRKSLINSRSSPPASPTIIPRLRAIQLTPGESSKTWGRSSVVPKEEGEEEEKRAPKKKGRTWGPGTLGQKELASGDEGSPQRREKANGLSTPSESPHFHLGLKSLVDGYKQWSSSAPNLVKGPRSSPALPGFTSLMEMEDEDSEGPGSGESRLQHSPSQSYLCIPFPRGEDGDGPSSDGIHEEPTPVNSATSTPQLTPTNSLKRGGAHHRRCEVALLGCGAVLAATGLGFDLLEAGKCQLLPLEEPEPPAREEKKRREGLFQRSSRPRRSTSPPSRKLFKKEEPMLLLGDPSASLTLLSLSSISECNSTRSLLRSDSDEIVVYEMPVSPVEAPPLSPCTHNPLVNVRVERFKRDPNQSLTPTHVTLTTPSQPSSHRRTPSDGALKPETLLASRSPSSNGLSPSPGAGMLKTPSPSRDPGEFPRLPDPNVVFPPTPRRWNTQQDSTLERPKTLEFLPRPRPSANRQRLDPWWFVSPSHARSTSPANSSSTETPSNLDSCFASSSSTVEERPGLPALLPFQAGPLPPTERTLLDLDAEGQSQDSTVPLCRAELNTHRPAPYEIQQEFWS", "source_text": "(§1) We assessed the selectivity of members of this scaffold using the KINOMEscan methodology across a near comprehensive panel of 442 kinases [[18,27]]."}, "panel of 442 kinases [2]": {"molecular_target": "T2, panel of 442 kinases (Homo sapiens, UniProt O43283)", "T2 construct": "purchased KINOMEscan", "T2 sequence (O43283 1-966)": "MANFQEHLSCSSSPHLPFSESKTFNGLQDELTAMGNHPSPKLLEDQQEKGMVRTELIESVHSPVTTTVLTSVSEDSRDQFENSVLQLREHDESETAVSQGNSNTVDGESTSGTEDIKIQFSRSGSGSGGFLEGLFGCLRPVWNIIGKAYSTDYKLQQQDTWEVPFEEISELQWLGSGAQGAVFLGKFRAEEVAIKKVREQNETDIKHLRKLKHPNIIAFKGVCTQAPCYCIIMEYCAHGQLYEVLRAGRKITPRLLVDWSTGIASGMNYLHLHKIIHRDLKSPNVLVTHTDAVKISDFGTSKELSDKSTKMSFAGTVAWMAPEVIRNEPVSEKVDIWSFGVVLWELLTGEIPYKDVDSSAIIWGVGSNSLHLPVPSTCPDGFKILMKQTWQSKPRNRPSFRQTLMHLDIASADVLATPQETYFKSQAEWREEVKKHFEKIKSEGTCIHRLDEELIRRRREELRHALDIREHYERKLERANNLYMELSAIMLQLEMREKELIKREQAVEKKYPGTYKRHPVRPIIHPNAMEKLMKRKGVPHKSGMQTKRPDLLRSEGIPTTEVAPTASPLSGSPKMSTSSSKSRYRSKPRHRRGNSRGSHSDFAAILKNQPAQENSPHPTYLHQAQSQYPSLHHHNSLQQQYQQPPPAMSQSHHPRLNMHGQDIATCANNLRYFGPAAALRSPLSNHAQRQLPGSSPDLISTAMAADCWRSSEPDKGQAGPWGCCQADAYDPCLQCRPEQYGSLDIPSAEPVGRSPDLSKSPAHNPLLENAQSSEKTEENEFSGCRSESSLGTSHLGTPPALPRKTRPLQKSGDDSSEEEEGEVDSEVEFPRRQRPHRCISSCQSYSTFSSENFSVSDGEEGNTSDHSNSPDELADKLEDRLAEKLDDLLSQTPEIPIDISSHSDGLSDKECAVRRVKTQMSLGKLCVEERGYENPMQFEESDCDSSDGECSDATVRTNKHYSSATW", "source_text": "as §1"}, "panel of 442 kinases [3]": {"molecular_target": "T3, panel of 442 kinases (Homo sapiens, UniProt O15075)", "T3 construct": "purchased KINOMEscan", "T3 sequence (O15075 whole entry)": "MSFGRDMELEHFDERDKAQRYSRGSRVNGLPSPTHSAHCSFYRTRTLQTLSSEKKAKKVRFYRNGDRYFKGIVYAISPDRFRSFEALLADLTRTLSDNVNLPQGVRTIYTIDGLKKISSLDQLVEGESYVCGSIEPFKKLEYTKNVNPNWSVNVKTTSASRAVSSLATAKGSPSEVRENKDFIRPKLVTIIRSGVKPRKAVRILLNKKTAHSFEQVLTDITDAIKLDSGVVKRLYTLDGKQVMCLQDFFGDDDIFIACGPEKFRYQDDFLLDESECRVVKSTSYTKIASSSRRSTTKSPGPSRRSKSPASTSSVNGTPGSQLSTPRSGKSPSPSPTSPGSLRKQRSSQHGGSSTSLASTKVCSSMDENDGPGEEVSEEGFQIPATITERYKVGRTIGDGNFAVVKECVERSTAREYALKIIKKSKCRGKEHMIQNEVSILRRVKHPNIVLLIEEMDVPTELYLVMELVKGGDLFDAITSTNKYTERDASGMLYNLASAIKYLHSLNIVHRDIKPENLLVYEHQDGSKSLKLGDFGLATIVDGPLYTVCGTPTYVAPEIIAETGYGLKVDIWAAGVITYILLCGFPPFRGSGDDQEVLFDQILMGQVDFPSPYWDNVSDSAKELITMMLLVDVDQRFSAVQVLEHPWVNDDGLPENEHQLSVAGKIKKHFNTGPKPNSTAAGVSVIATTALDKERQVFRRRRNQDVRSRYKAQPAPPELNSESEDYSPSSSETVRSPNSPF", "source_text": "as §1"}}}
{"smiles": "COc1cc(C(=O)N2CCC(N3CCN(C)CC3)CC2)ccc1Nc1ncc2c(n1)N(C)c1ccccc1C(=O)N2C", "note": "[15 (LRRK2-IN-1)]", "values": [{"measurement": "KINOMEscan: MLK1", "setting": "panel of 442 kinases [1]", "value": 93}, {"measurement": "KINOMEscan: LZK", "setting": "panel of 442 kinases [2]", "value": 100}, {"measurement": "KINOMEscan: DCAMKL1", "setting": "panel of 442 kinases [3]", "value": 4.2}]}
{"smiles": "CCOc1cc(C(=O)N2CCC(N3CCN(C)CC3)CC2)ccc1Nc1ncc2c(n1)N(C1CCCC1)c1ccccc1C(=O)N2C", "note": "[Compound 26]", "values": [{"measurement": "KINOMEscan: MLK1", "setting": "panel of 442 kinases [1]", "value": 100}, {"measurement": "KINOMEscan: LZK", "setting": "panel of 442 kinases [2]", "value": 92}]}
{"smiles": "COc1cc(C(=O)N2CCC(N3CCN(C)CC3)CC2)ccc1Nc1ncc2c(n1)N1CCc3cccc(c31)C(=O)N2C", "note": "[Compound 24]", "values": [{"measurement": "KINOMEscan: MLK1", "setting": "panel of 442 kinases [1]", "value": 85}, {"measurement": "KINOMEscan: DCAMKL1", "setting": "panel of 442 kinases [3]", "value": 6.4}]}
{"smiles": "COc1cc(C(=O)N2CCC(N3CCN(C)CC3)CC2)ccc1Nc1ncc2c(n1)N(C1CCCC1)c1ccccc1C(=O)N2C", "note": "[Compound 25, 11-cyclopentyl-2-((2-methoxy-4-(4-(4-methylpiperazin-1-yl)piperidine-1-carbonyl)phenyl)amino)-5-methyl-5H-benzo[e]pyrimido[5,4-b][1,4]diazepin-6(11H)-one]", "values": [{"measurement": "KINOMEscan: MLK1", "setting": "panel of 442 kinases [1]", "value": 100}, {"measurement": "KINOMEscan: LZK", "setting": "panel of 442 kinases [2]", "value": 100}, {"measurement": "KINOMEscan: DCAMKL1", "setting": "panel of 442 kinases [3]", "value": 8.4}]}
